Values of other authors as cited in article PMC8760190 (Molecular Imaging and Biology, 2021).

Details: 90 min after injection, rats and mice

Compound | Non-metabolized parent compound as share of remaining radioactivity in the brain
CCN(CC)C(=O)Cc1c(-c2ccc(OCC[18F])cc2)nn2c(C)cc(C)nc12 [[^18F]DPA-714] | about 50%
CCN(CC)C(=O)Cc1c(-c2ccc([18F])cc2)nn2c(C)cc(C)nc12 [[^18F]F-DPA] | more than 90%
